Assay results as given in patent US20230416199A1, “INHIBITORS OF AMINO ACID TRANSPORT” (ICAHN SCHOOL OF MEDICINE AT MOUNT SINAI, priority 2020, published 2023).

Experiments:
Type in all cases: cell-based
hASCT1 = biological target: T1, hASCT1 (Homo sapiens, UniProt P43007); experiment: Electrophysiology (whole-cell current recording) of transfected HEK293 cells, hASCT1; details: apparent Ki in the absence of substrate, HEK293, mean ± SD; read-out: Ki hASCT1
T1 construct: expressed in transfected cells; host or cells: HEK293 (ATCC CRL-11268), transient transfection
T1 sequence (P43007 1-532): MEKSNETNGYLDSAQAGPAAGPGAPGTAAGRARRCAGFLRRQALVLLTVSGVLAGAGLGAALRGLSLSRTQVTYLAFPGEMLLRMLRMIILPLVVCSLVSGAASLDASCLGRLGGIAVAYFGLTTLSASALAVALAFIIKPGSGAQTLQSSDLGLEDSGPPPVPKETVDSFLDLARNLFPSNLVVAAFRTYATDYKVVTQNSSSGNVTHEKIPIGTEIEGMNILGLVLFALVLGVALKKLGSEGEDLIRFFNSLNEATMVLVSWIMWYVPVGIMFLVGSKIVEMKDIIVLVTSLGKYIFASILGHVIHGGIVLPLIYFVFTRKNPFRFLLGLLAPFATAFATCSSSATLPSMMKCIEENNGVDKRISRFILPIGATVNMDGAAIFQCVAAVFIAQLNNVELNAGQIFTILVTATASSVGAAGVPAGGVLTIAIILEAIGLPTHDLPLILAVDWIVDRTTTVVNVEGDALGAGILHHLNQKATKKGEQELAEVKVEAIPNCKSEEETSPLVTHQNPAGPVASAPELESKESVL
Experimental: (§1) Human embryonic kidney 293 (HEK293, ATCC CRL-11268) cells were cultured in DMEM media supplemented with 10% (v v) fetal bovine serum (FBS), 2 mM glutamine, 1% penicillin streptomycin solution, 1 mM sodium pyruvate and non-essential amino acids. Cells were maintained at 37° C. in a fully humidified atmosphere containing 5% CO2. rASCT2, hASCT2, hASCT1, EAAT1, EAAT2, EAAC1, EAAT5 and YFP complementary DNAs were each used to transiently transfect HEK293 using POLYPLUS Jet-prime transfection reagent. Cells were analyzed using electrophysiological techniques 24-40 hours after transfection.
(§2) Stock solutions of inhibitor was prepared in dimethyl sulfoxide (DMSO) up to 100 mM. Dilutions to working concentrations were made using external buffer. […] For rASCT2, hASCT2 and hASCT1, external buffer contained 140 mM NaCl, 2 mM MgCl2, 2 mM CaCl2), and 10 mM HEPES, pH 7.40 while internal pipette solution comprised of 130 mM NaSCN, 2 mM MgCl2, 10 mM EGTA, 10 mM HEPES and 10 mM alanine, pH 7.40. For specificity experiments with EAAT1, EAAT2, EAAC1 and EAAT5, internal solution contained 10 mM glutamate instead of alanine. Compounds were applied to HEK293 cells expressing DNA of interest suspended from a current recording electrode in whole cell configuration through a rapid solution exchange device. Cells are immersed in external buffer bath used to dissolve the inhibitors. The open pipette resistance was between 3 and 6 MΩ. Series resistance was not compensated in these experiments due to relatively small currents. Currents traces were recorded using an Adams and List EPC7 amplifier and digitized using a Molecular Devices Digidata A/D converter.
(§3) Linear and nonlinear curve fitting of the experimental data were analyzed using MicroCal Origin software. Nonlinear dose-response relationships were fitted with a Michaelis-Menten-like equation to obtain apparent Ki values in the absence of substrate (see TABLE 2 for Ki values). The figures show representative current traces and dose-response curves for hACST2 and rASCT2, used to obtain Ki values in TABLE 2 for compound SN 40. At least four experiments were performed with at least three different cells. Error bars in all graphs, e.g., in FIG. 1B and FIG. 1C and tables (Ki values) represent mean±SD.

rASCT2 = biological target: T2, rASCT2 (Rattus norvegicus, UniProt D3ZJ25); experiment: Electrophysiology (whole-cell current recording) of transfected HEK293 cells, rASCT2; details: apparent Ki in the absence of substrate, HEK293, mean ± SD; read-out: Ki rASCT2
T2 construct: expressed in transfected cells; host or cells: HEK293 (ATCC CRL-11268), transient transfection
T2 sequence (D3ZJ25 1-555): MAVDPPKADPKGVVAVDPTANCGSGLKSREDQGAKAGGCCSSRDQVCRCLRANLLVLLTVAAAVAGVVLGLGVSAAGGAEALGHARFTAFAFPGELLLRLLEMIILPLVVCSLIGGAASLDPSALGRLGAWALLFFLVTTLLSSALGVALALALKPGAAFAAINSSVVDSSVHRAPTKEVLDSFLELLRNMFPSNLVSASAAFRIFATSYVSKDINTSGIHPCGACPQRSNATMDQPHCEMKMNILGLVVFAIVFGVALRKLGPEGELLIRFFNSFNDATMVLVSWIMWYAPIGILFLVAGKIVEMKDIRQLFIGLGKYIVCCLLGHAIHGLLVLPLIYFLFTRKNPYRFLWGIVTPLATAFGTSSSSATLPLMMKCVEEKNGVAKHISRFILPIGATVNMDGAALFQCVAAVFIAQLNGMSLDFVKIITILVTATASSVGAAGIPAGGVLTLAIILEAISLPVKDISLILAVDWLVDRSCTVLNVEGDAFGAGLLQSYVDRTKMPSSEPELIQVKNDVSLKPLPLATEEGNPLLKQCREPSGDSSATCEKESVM
Experimental: as §1, §2, §3

hASCT2 = biological target: T3, hASCT2 (Homo sapiens, UniProt Q15758); experiment: Electrophysiology (whole-cell current recording) of transfected HEK293 cells, hASCT2; details: apparent Ki in the absence of substrate, HEK293, mean ± SD; read-out: Ki hASCT2
T3 construct: expressed in transfected cells; host or cells: HEK293 (ATCC CRL-11268), transient transfection
T3 sequence (Q15758 1-541): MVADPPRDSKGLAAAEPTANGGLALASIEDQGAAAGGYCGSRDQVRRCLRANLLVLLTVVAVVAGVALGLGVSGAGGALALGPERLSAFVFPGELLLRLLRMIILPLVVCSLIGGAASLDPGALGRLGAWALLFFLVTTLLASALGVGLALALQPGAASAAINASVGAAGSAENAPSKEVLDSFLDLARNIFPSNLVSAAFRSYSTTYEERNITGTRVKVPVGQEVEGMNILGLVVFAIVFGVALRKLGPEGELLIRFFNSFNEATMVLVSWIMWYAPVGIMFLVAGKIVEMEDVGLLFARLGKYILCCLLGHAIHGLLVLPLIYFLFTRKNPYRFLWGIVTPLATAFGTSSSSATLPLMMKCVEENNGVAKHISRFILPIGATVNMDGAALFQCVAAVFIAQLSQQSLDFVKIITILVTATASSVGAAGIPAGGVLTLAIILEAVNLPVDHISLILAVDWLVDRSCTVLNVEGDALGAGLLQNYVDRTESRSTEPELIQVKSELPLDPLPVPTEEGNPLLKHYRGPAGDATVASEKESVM
Experimental: as §1, §2, §3

EAAT2 = biological target: T4, EAAT2 (Homo sapiens, UniProt P43004); experiment: Electrophysiology specificity experiment in transfected HEK293 cells, EAAT2; details: apparent Ki, HEK293, internal solution 10 mM glutamate, mean ± SD; read-out: Ki EAAT2
T4 construct: expressed in transfected cells; host or cells: HEK293 (ATCC CRL-11268), transient transfection
T4 sequence (P43004 whole entry, species assumed): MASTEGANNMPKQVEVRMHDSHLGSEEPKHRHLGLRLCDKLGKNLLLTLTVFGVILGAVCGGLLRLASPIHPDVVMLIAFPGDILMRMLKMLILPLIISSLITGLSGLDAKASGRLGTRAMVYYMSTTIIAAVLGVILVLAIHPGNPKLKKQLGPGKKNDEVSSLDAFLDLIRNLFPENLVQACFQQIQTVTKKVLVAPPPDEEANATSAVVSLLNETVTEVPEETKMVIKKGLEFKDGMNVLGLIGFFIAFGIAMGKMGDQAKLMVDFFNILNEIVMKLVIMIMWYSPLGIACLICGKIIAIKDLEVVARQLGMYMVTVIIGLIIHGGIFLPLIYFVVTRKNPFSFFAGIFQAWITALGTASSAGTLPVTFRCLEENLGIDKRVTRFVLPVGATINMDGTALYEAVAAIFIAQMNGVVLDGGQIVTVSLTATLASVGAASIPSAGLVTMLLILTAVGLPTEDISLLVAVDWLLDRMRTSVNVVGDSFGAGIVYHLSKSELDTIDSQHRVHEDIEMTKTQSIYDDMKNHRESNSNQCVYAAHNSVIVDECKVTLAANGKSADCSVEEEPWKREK
Experimental: as §1, §2, §3

EAAT5 = biological target: T5, EAAT5 (Homo sapiens, UniProt O00341); experiment: Electrophysiology specificity experiment in transfected HEK293 cells, EAAT5; details: apparent Ki, HEK293, internal solution 10 mM glutamate, mean ± SD
T5 construct: expressed in transfected cells; host or cells: HEK293 (ATCC CRL-11268), transient transfection
T5 sequence (O00341 whole entry, species assumed): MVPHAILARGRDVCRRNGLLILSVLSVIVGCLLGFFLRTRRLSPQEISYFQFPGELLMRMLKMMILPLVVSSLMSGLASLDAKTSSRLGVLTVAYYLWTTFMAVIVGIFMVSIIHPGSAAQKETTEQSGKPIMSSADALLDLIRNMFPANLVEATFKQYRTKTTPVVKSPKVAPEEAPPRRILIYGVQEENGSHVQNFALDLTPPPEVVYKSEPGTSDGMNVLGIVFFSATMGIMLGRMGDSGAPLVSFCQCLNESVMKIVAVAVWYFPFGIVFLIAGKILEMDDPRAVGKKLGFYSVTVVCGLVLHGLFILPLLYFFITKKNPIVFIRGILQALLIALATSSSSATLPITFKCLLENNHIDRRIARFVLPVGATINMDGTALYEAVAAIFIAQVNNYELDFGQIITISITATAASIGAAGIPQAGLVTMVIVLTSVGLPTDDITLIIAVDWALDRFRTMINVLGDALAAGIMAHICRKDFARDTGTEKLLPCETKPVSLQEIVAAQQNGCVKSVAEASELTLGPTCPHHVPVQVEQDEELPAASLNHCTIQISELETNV
Experimental: as §1, §2, §3

Structure (SMILES)	Ki (hASCT1)	Ki (rASCT2)	Ki (hASCT2)	Ki (EAAT2)	Ki (EAAT5)
O=C(O[C@@H]1CN[C@H](C(=O)O)C1)c1ccc(-c2ccc(C(F)(F)F)cc2)cc1 [SN 09]	440 ± 100 nM	270 ± 50 nM	1050 ± 200 nM	970 ± 100 nM	1090 ± 200 nM
Cc1ccccc1-c1ccc(C(=O)O[C@@H]2CN[C@H](C(=O)O)C2)cc1 [SN 10]	1330 ± 300 nM	970 ± 100 nM	1120 ± 100 nM	1300 ± 100 nM	2500 ± 900 nM
O=C(O[C@@H]1CN[C@H](C(=O)O)C1)c1ccc(-c2ccccc2)cc1 [SN 05]	2770 ± 100 nM	730 ± 100 nM	870 ± 100 nM	7250 ± 1500 nM	2220 ± 500 nM
O=C(O[C@@H]1CN[C@H](C(=O)O)C1)c1ccc(-c2ccc(F)cc2)cc1 [SN 08]	900 ± 100 nM	650 ± 40 nM	740 ± 100 nM	1290 ± 300 nM	2400 ± 700 nM

The remaining lines, values ahead:

Ki (hASCT1)	Ki (rASCT2)	Ki (hASCT2)	Ki (EAAT2)	Ki (EAAT5)	Structure (SMILES)
11600 ± 1800 nM	4400 ± 1500 nM	22600 ± 3700 nM	11000 ± 1300 nM	12300 ± 3200 nM	N[C@@H](COC(=O)c1ccc(NC(=O)c2ccccc2)cc1)C(=O)O [SN 25]
4370 ± 800 nM	890 ± 200 nM	7930 ± 900 nM	7950 ± 1100 nM	–	O=C(O[C@@H]1CN[C@H](C(=O)O)C1)c1ccc(-c2ccccc2)nc1 [SN 19]
2820 ± 100 nM	1130 ± 100 nM	980 ± 100 nM	2090 ± 500 nM	1410 ± 300 nM	O=C(O)[C@@H]1C[C@H](OCc2ccc(-c3ccccc3)cc2)CN1 [SN 39]
8200 ± 800 nM	870 ± 100 nM	9130 ± 1700 nM	3140 ± 500 nM	1170 ± 100 nM	Cc1ccccc1-c1ccc(C(=O)O[C@@H]2CN[C@H](C(=O)O)C2)cc1C [SN 11]
